Data on one compound can be found in US20220313634A1, “AGENT FOR THE PROPHYLACTIC AND/OR SUPPORTIVE THERAPEUTIC TREATMENT OF PARKINSON'S DISEASE” (priority 2017, published 2022).

In the assay the test system is Parkinson's patients. Nature of the assay: Patient studies of butyric acid/butyrate given with physician-directed medication. The assay is classed as in vivo, human. The method, then: The effect of butyric acid/butyrate was investigated in patient studies in which more than 1,000 test subjects have participated for at least one year each. A total amount of 6 g butyric acid or butyrate (as salt) was administered together with the physician-directed medication (levodopa etc.) in three daily doses with meals in the morning, at noon and in the evening.
This is especially important because the usual medication for Parkinson's patients, not only with levodopa, can lead to considerable side effects such as dizziness, nausea, tachyarrhythmia, psychosis, dyskinesia and circulatory problems.

Regarding `CCCC(=O)O` [butyric acid/butyrate, butyric acid], the “general condition, in particular with respect to the motor functions” value (more than 1,000 test subjects, at least one year each, total 6 g butyric acid or butyrate (as salt) in three daily doses with meals, together with levodopa etc.) is given as “Significant improvements”. Moreover, the “reduction of the amount of dopamine used by Parkinson's patients” value (patients treated with butyric acid/butyrate) was “at least 50%”. In addition, the “reduction of the amount of dopamine used by Parkinson's patients, in some cases” value (patients treated with butyric acid/butyrate, in some cases) is given as “up to 90%”.
